Test results as given in patent publication US20070060508A1, “Binding molecules” (priority 2002, published 2007).
Ends that are not written are not given here.

Tested on: Daudi cells
Experiment: Cytotoxicity test: NK effector cells (YT) incubated with tumor target cells (Daudi) plus test peptide, LDH release
Format: cell-based
Settings: YT and Daudi cells 1:10, 16 h
Experimental: For the cytotoxicity measurement, NK cells, which specifically kill tumor cells, as effector cells were incubated with tumor cells as target cells in the presence of the test peptides. The cytotoxicity measurement was performed by measuring the release of lactate dehydrogenase (LDH) according to the standard protocol by a cytotoxicity test kit (Promega, Germany) and in a microwell plate reader. As NK cells (E), YT cells (DSMZ, Germany) were used. As target cells (T), Daudi cells (DSMZ, Germany) were used. YT and Daudi cells were seeded in microwell plates at a ratio of 1:10 and incubated in the presence of 0.3, 3, 30:M test peptide for 16 h.
On the next day, 10:l of lysis buffer each were added to the cells and the cells were incubated for additional 2 h. Subsequently, 5:l of the agent were transferred into a second microwell plate and combined with 50:l of substrate buffer. After a 30 min incubation, the reaction was terminated by 50:l of stop solution and the absorption of the formed MTT color complex was measured in a microwell plate reader.

Row | Sequence | Cytotoxicity (0.3:M test peptide) | Cytotoxicity (3:M test peptide) | Cytotoxicity (30:M test peptide)
1 | APTSSSTKKTQLQLEHFLMKFQMILNGINN [Sequence 3, APTSSSTKKT QLQLEHFLMK FQMILNGINN] | 0% | 20% | 0%
2 | APTSSSTKKTQLQLEHFLLDFQMILNGINN [Sequence 2, APTSSSTKKT QLQLEHFLLD FQMILNGINN] | 30% | 80% | 10%
3 | APTSSSTKKTQLQLEHLLLKLQMILNGINN [Sequence 1, APTSSSTKKT QLQLEHLLLK LQMILNGINN] | 30% | 30% | 30%
